The target in assay [1] is T1, PGD2 receptor (Homo sapiens, UniProt Q13258).
T1 construct: A suspension adjusted to contain the platelets at a final concentration of 5×10^8/ml was warmed at 37° C; endogenous in cells; host or cells: washed human platelets from a healthy volunteer
T1 sequence (Q13258 1-359): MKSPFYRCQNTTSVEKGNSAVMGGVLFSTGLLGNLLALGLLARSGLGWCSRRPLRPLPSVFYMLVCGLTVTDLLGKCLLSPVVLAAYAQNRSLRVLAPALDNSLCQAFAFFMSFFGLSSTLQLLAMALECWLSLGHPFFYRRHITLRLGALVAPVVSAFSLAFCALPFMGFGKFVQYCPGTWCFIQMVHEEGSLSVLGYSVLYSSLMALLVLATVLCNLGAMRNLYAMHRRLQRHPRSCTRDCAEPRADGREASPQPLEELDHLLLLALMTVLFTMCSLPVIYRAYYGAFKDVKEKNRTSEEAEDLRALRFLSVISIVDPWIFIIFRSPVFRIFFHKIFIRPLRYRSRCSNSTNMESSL
As to the kind of experiment: Binding activity to PGD2 receptor ([3H]PGD2, human platelet membrane fraction). As for the experimental part: Experiment 1 Binding Activity to PGD2 Receptor
(1) Preparation of Human Platelet Membrane Fraction
Blood was collected using a plastic syringe containing 3.8% sodium citrate from the vein of healthy volunteers (adult male and female), then put into a plastic test tube and mixed by slow-reversion. The sample was then centrifuged at 1800 rpm, for 10 min at room temperature, and the supernatant containing PRP (platelet-rich plasma) was collected. The PRP was re-centrifuged at 2300 rpm, for 22 min at room temperature to obtain platelets. The platelets were homogenized using a homogenizer (Ultra-Turrax) followed by centrifugation 3 times at 20,000 rpm, 10 min at 4° C. to obtain a platelet membrane fraction. After protein determination, the membrane fraction was adjusted to 2 mg/ml and preserved in a refrigerator at −80° C. until using for the binding test.
(2) Binding to PGD2 Receptor
To a binding-reaction solution (50 mM Tris/HCl, pH 7.4, 5 mM MgCl2) (0.2 ml) were added the human platelet membrane fraction (0.1 mg) and 5 nM [^3H]PGD2 (115 Ci/mmol), and the mixture was reacted at 4° C. for 90 min. After the reaction, the mixture was filtered through a glass fiber filter paper and washed several times with cooled physiological saline, then the radioactivity retained on the filter paper was measured. The specific-binding ratio was calculated by subtracting the non-specific binding ratio which is the radioactivity similarly measured in the presence of 10 μM PGD2 from the total binding. The inhibitory activity of each compound was expressed as the concentration required for 50% inhibition (IC50), which was determined by depicting a substitution curve by plotting the binding ratio (%) in the presence of each compound, where the binding ratio in the absence of a test compound is 100%.

Assay [2] relates to Male Hartley guinea pigs. Put plainly: Antigen-induced bronchial hyperresponsiveness (acetylcholine PD200, OVA-sensitized guinea pigs). It counts as in vivo, guinea pig. The settings on record: for inhibition of the induction of bronchial hyperresponsiveness: summary of Table 74 to Table 76, oral, guinea pig. As for the experimental part: Comparative Experiment 2 Antigen-Induced Bronchial Hyperresponsiveness
Male Hartley guinea pigs were actively sensitized to ovalbumin (OVA) by inhalation of aerosolized solution of 1% ovalbumin twice at a week interval. One week after the second sensitization, the animals were treated with antihistamine, diphenhydramine (10 mg/kg, i.p.), and then challenged with 1% OVA aerosol for 5 min. Twenty four hours later, acetylcholine at doses at 3.13, 6.25, 12.5, 25, 50 and 100 micro g/kg was sequentially injected into the animals which were anesthetized with pentobarbital (30 mg/kg, i.p.). The bronchoconstriction induced by each dose of acetylcholine was monitored by the modified method of Konzett-Rössler technique, and made a dose-response curve of acetylcholine. Using the dose-response curve, the dose required for 200% increase in bronchoconstriction from baseline (PD200) was calculated in each animal and used as an indication of bronchial responsiveness. Compounds were orally administered 1 hour before antigen challenge. **: P<0.01 vs Vehicle(Dunnett's test), ^##: P<0.01 vs Vehicle(Student's t test).

Setting [3] is: comparative experiment in accordance with Experiment 1, read-out: Experiment 1 Antagonistic activity against PGD2 receptor IC50.

A word on the IC50: it is the midpoint of a concentration-inhibition curve.

Read-outs that look alike come from different tables or passages of the source. Marks after values point to notes of the source that are not given here.

For the compound `O=C(O)CCC/C=C\C[C@H]1[C@@H]2CC[C@@H](C2)[C@@H]1NS(=O)(=O)c1ccccc1` [A, reference compound], in assay [1] (setting [3]), the IC50 is > 10000 nM. Moreover, the “Log PD200” value in assay [2] (1 mg/kg orally 1 hour before antigen challenge, OVA-sensitized guinea pigs, acetylcholine) was 1.29 ± 0.04; in assay [2] (10 mg/kg orally 1 hour before antigen challenge, OVA-sensitized guinea pigs, acetylcholine) it was 1.61 ± 0.09**. Further, the “inhibition of the induction of bronchial hyperresponsiveness” value in assay [2] was “suppressed”.
In the case of `Cc1cccn1S(=O)(=O)c1ccc(C(=O)N[C@@H]2[C@@H](CCCC/C=C/C(=O)O)C[C@H]3C[C@@H]2C3(C)C)s1` [II-7I-55a], the 50% inhibitory concentration (IC50) in assay [1] (setting [3]) is 1.8 nM; in assay [1] (human platelet membrane fraction, read-out: Binding activity to PGD2 receptor in human platelet membrane fraction IC50), 1.8 nM. In assay [2] (10 mg/kg orally 1 hour before antigen challenge, acetylcholine dose for 200% increase in bronchoconstriction, 24 h after OVA challenge), the “Log PD200” value is reported as 1.442 ± 0.055**. Further, in assay [2], the “inhibition of the induction of bronchial hyperresponsiveness” value was “suppressed”.

Source of the values: patent US7084136B2, “Drug composition antagonistic to both PGD2/TXA2 receptors” (Shionogi & Co., Ltd., priority 2000, dated 2006).
